Source: article PMC8924238, “Mapping the sequence specificity of heterotypic amyloid interactions enables the identification of aggregation modifiers” (Nature Communications, 2022)
“Also recorded” adds a separate entry of the source. Residues, ends and D or L forms follow the SMILES beside them.

How the values were obtained:
[1] = test system: HEK293 Tau^RD-P301S-CFP/YFP expressing biosensor cells; experiment: Seeding inhibition in FRET tau biosensor cells, AD brain extracts; type: cell-based, human; details: CAP1 500 nM pre-treatment, extracts diluted 500x, three patients in duplicates, n = 6
Source text: Ethical approval to access and work on the human tissue samples was given by the UZ Leuven ethical committee (Leuven/Belgium; File-No. S63759). An informed consent for autopsy and scientific use of autopsy tissue with clinical information was granted from all subjects involved. Following approval, brain tissue from autopsy cases was received from UZ/KU Leuven Biobank. Sarkosyl-insoluble material was extracted from cortex tissue of three individual patients with Alzheimer’s disease (designated here as A1–A3, Supplementary Table 3), as shown previously. Briefly, the tissue was homogenised with a FastPrep (MP Biomedicals) in 10 volumes (w/v) cold buffer consisting of 10 mM Tris-HCl pH 7.4, 0.8 M NaCl, 1 mM EGTA and 10% sucrose, followed by centrifugation at 20,000 × g for 20 min at 4 °C. Universal Nuclease (Pierce) was added to the supernatant, followed by a 30 min incubation at room temperature. The sample was then brought to 1% Sarkosyl (Sigma) and incubated for 1 h at room temperature while shaking (400 rpm), followed by centrifugation at 350,000 × g for 1 h at 4 °C. The pellet was washed once, resuspended in 50 mM Tris-HCl pH 7.4 (175 mg of starting material per 100 µl) and stored at −80 °C. […]

[2] = target: T1, VQIVYK (PHF6) APR from tau (Homo sapiens, UniProt P10636); experiment: Th-T aggregation kinetics of VQIVYK with sub-stoichiometric variant peptides (1:5) or CAP1; type: biochemical; details: Fig. 8c
T1 construct: The VQIVYK (PHF6) stretch, located in the C-terminal repeat domain of tau; made in house; host or cells: chemical solid phase peptide synthesis (no expression host)
Source text: To experimentally investigate these calculations, we synthesised a library of 90 peptides corresponding to 78% of all single amino acid substitutions of the VQIVYK APR. We excluded introduction of cysteines to avoid further complexity introduced by the formation of intermolecular disulphides and also avoided substitutions of the Tyr residue at position five, since it enables fast and accurate readout of peptide concentration. First, peptide:APR mixtures were monitored using Th-T aggregation kinetic assays. For this screen, we used sub-stoichiometric mixtures of the variant peptides against PHF6 (1:5 analogy). The reasoning behind this was that it enabled tracing of subtle differences in aggregation kinetics, while at the same time reduced the propensity of most variants to participate in self-assembly. […] For the rest, following curve fitting of the monitored Th-T curves (Figs. 5a, b and S4), we calculated and summarised fold changes of aggregation half-times (t1/2) in a volcano plot, with the negative logarithm of the p-values represented on the vertical axis (Fig. 5c). […] It should be noted, however, that changes in fluorescence intensity can also potentially reflect morphological differentiation of the produced fibrils that can affect Th-T binding. […]

ATTO633-monomeric tau = target: T2, ATTO633-monomeric tau (Homo sapiens, UniProt P10636); experiment: Microscale thermophoresis, monomeric rTau; type: binding; details: MST, 25 nM ATTO633-monomeric tau, CAP1 titrated from 50 μM; n = 3
T2 construct: heparin-induced aggregation of recombinant full-length tau (rTau); made in house
T2 sequence (P10636 1-441 isoform P10636-8): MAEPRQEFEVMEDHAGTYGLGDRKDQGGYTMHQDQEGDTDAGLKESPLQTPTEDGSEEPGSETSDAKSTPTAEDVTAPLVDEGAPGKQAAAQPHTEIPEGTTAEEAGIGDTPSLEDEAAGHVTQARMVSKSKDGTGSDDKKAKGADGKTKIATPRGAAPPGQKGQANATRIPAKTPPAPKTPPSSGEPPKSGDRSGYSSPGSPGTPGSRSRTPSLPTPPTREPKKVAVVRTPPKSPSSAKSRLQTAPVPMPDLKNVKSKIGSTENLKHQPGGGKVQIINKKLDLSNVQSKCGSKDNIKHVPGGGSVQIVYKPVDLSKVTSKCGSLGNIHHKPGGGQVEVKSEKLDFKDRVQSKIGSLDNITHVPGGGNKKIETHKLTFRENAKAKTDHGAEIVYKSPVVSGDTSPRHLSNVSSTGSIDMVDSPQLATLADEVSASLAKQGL
Experimental: MST measurements were performed to calculate binding affinities. Monomeric tau was labelled using amine reactive ATTO633 (ATTO633-NHS), following the manufacturer guidelines. Labelled tau aggregates were prepared using a 1:9 analogy of labelled to unlabelled monomeric tau, following the same aggregation protocol described for the unlabelled protein. 25 nM of ATTO633-monomeric tau or ATTO633-tau seeds were mixed against the CAP1 inhibitor, which was dissolved and titrated down starting from 50 μM, in tau buffer (HEPES 10 mM, 100 mM NaCl). Measurements were recorded on a Monolith NT automated instrument (NanoTemper Technologies GmbH, Germany) with a red-laser channel at 5% LED excitation power and medium MST power at ambient conditions. Affinity constants and experimental data fitting was performed using the NanoTemper analysis software (v2.2.4) and results were depicted as differentials between the bound and unbound state after baseline subtraction (ΔFnorm) over inhibitor concentration in the logarithmic scale.

[3] = target: T3, recombinant full-length tau (tau^2N4R) (Homo sapiens, UniProt P10636); experiment: Th-T kinetics of heparin-induced aggregation of recombinant full-length tau; type: biochemical; details: Fig. 8d
T3 construct: Recombinant full-length tau (tau^2N4R) was produced following previous established protocols; made in house
T3 sequence (P10636 1-441 isoform P10636-8): as above
Experimental: Recombinant full-length tau (tau^2N4R) was produced following previous established protocols. Lyophilised protein aliquots were freshly dissolved in 10 mM HEPES pH 7.4 supplemented with 100 mM NaCl at a final concentration of 10 μM. After filtration, using […] PVDF filters, the protein solution was spiked with 5 μ μM of heparin (Sigma) and aggregation was monitored by adding 25 μM of Th-T in half-area black 96-well microplates (Corning, USA). Fluorescence was measured in triplicates, using a FluoStar Omega plate reader (BMG Labtech, Germany) at 37 °C, equipped with an excitation filter at 440 nm and emission filter at 490 nm. To generate seeds, endpoint amyloid fibrils were sonicated for 15 min (30 s on, 30 s off) at 10 °C, using a Bioruptor Pico sonication device (Diagenode).

CC[C@H](C)[C@H](NC(=O)[C@H](CCC(N)=O)NC(=O)[C@H](Cc1c[nH]c2ccccc12)NC(=O)[C@H](CCCNC(=N)N)NC(=O)[C@H](CO)NC(=O)CNC(=O)[C@H](CCCNC(=N)N)NC(=O)[C@H](CCCCN)NC(=O)[C@H](Cc1ccc(O)cc1)NC(=O)[C@@H](NC(=O)[C@@H](NC(=O)[C@H](CCC(N)=O)NC(=O)[C@H](Cc1c[nH]c2ccccc12)NC(=O)[C@@H](N)CCCNC(=N)N)[C@@H](C)CC)C(C)C)C(=O)N[C@H](C(=O)N[C@@H](Cc1ccc(O)cc1)C(=O)N[C@@H](CCCCN)C(=O)N[C@@H](CCCNC(=N)N)C(=O)O)C(C)C [CAP1] (H-RWQIVYKRGSRWQIVYKR-OH; N-terminus and C-terminus assumed)
seed propagation of AD patient brain extracts (fraction of cells containing tau inclusions) [1]: significantly reduces | inhibition of self-assembly of the PHF6 hexapeptide [2]: successfully inhibited; also recorded: inhibits | binding to monomeric rTau (ATTO633-monomeric tau): no significant binding | inhibition of heparin-induced aggregation of rTau [3]: successfully inhibited; also recorded: inhibits
